The target of one assay is TRPV1 receptor (Homo sapiens, UniProt Q8NER1). In words: Block of TRPV1 receptor activation by capsaicin in vitro. It is filed as biochemical.
Assay [1] concerns inflammatory thermal hyperalgesia induced by intraplantar administration of CFA. Put plainly: Inflammatory pain model in rats (CFA, thermal hyperalgesia). It is filed as in vivo. The settings on record: po; rat, p.o., acute dosing; read-out: ED50, reversal of inflammatory thermal hyperalgesia induced by CFA. On the procedure:
The response to acute thermal stimulation was determined using a commercially available paw thermal stimulator (UARDG, University of California, San Diego, Calif.). Rats were placed individually in Plexiglass cubicles mounted on a glass surface maintained at 30° C., and allowed a 30 min habituation period. A thermal stimulus, in the form of radiant heat emitted from a focused projection bulb, was then applied to the plantar surface of each hind paw. In each test session, each rat was tested in three sequential trials at approximately 5 min intervals. Paw withdrawal latencies (PWLs) were calculated as the mean of the two shortest latencies. An assay cut-off was set at 20.5 s. Unilateral inflammation was induced by injecting 150 μL of a 50% solution of complete Freund's adjuvant (CFA) (Sigma, St. Louis, Mo.) in physiological saline into the plantar surface of the right hind paw of the rat. The hyperalgesia to thermal stimulation was determined 2 days following CFA injection using the same apparatus as described above for the noxious acute thermal assay. Compound A was dissolved in 100% polyethylene glycol (PEG 400) for oral administration in a 2 mL/kg injection volume. Compounds B, C, and D were dissolved in 10% ethanol, 20% Tween 80 and 70% polyethylene glycol-400 for oral administration in a 2 mL/kg injection volume. […]

Assay [2] relates to bone cancer pain, C3H/HeJ mice. Put plainly: Bone cancer pain model in mice (2472 sarcoma). The note with it: mouse. Format: in vivo. On the procedure: Male Sprague-Dawley rats (Charles River, Wilmington, Mass.) weighing 200-300 grams were utilized in most experiments. Animals were group housed in AAALAC approved facilities at Abbott Laboratories in a temperature-regulated environment with lights on between 0700 and 2000 h. Food and water were available ad libitum except during testing. All animal handling and experimental protocols were approved by an Institutional Animal Care and Use Committee (IACUC). All experiments were performed during the light cycle. The bone cancer pain experiments were performed on adult male C3H/HeJ mice (Jackson Laboratories, Bar Harbor, Me.), approximately 7-8 weeks old, weighing 25-30 g at the time of tumor cell injection. The mice were housed in accordance with National Institutes of Health Guidelines and kept in a vivarium maintained at 22° C. with a 12 h alternating light-dark cycle. They were given food and water ad libitum except during testing. All procedures were approved by the Institutional Animal Care and Use Committee at the University of Minnesota. All procedures also adhered to the guidelines of the Committee for Research and Ethical Issues of IASP published in PAIN, 16 (1983) 109-110.
An arthrotomy was performed following induction of general anesthesia with sodium pentobarbital (50 mg/kg, intraperitoneal (i.p.)). A needle was inserted into the intramedullary canal to create a pathway for the sarcoma cells. A depression was then made using a pneumatic dental high-speed hand-piece. Mice were injected with Hanks-buffered saline (HBSS) (20 μL, Sigma, St. Louis, Mo.) or HBSS containing the 2472 sarcoma line (ATCC, Rockville, Md., USA). The injection site was sealed with a dental amalgam plug to confine the cells within the intramedullary canal followed by irrigation with sterile water. […] Clips were removed at day 5 so as not to interfere with behavioral testing.
A variety of behavioral measurements was used to assess the extent of bone cancer pain as described previously [Schwei M J, Honore P, Rogers S D, Salak-Johnson J L, Finke M P, Ramnaraine M L, et al. Neurochemical and cellular reorganization of the spinal cord in a murine model of bone cancer pain. J Neurosci 1999; 19:10886-97]. All mice were tested and values obtained for behavioral responses before compound or vehicle administration, and then retested 1 hour following oral dosing. Percent effects were calculated as follows: (1−((Compound Value−Sham Value)/(Vehicle Value−Sham Value)))×100. The number of spontaneous guarding behaviors, representative of nociceptive behavior, was recorded during a 2 min observation period. Guarding was defined as the amount of time an animal held the hind paw aloft while not ambulatory. Mechanical allodynia at the knee joint was evaluated by normally non-noxious palpation of the distal femur every second for 2 min. Following the 2 min palpation, the mice were placed in the observation box and their palpation-induced guarding behavior was measured for an additional 2 min. Normal limb use during spontaneous ambulation in an open field was scored on a scale of 5-0: (5) normal use, (4) some limping, but not pronounced, (3) pronounced limp, (2) limp and guarding behavior, (1) partial non-use of limb, and (0) complete lack of limb use.
Compound A was dissolved in 100% polyethylene glycol (PEG 400) for oral administration in a 2 mL/kg injection volume. Compounds B, C, and D were dissolved in 10% ethanol, 20% Tween 80 and 70% polyethylene glycol-400 for oral administration in a 2 mL/kg injection volume. All compounds were dosed orally (p.o.) 60 minutes before behavioral testing.

Setting [3] is: 30 μmol/kg p.o., acute dosing, fifteen days following tumor cells inoculation.

For orientation: ED50 means the dose at which the effect has come halfway, by size or by number of responders.

TRPV1 receptor, sequence (Q8NER1 whole entry): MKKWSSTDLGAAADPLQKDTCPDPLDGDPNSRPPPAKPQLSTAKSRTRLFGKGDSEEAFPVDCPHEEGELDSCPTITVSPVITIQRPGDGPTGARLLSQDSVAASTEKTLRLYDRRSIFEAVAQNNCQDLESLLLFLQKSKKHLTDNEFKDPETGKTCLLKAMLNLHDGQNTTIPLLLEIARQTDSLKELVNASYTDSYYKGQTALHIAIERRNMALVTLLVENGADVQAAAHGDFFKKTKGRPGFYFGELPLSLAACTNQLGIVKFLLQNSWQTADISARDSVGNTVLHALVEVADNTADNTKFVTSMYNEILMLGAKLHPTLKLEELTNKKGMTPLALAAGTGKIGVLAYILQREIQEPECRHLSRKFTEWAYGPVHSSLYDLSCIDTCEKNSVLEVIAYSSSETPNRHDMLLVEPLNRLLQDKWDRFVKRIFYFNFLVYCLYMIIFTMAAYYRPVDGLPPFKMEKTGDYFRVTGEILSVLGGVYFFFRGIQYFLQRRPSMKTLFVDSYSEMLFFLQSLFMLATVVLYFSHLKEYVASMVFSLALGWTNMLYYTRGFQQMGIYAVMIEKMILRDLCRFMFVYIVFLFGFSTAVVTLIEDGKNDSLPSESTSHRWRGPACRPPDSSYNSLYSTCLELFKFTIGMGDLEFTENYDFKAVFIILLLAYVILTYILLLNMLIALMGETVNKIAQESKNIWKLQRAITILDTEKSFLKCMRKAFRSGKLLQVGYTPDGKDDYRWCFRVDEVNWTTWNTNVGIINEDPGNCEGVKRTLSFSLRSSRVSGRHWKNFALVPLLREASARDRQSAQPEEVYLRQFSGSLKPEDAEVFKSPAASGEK

Regarding `CC(C)(C)c1ccc2c(c1)CC[C@H]2NC(=O)Nc1cccc2[nH]ncc12` [Compound A, N-[(1R)-5-tert-butyl-2,3-dihydro-1H-inden-1-yl]-N′-1H-indazol-4-ylurea], the “ability to block TRPV1 receptor activation by capsaicin in vitro” value on TRPV1 receptor is reported as “potent”. Moreover, in assay [1], the ED50 is 10 µmol/kg. Moreover, in assay [2] (10 μmol/kg p.o. twice-daily for 9 days), the “reversal of spontaneous guarding” value came out at 45±3%. Also, the “reversal of evoked pain induced by palpation of the cancerous limb (% effects)” value in assay [2] (30 μmol/kg p.o., acute dosing) turned out to be 65±4%. Besides, in assay [2] (setting [3]), the “reversal of spontaneous guarding” value is recorded as 70±1% and the “reversal of the pain-induced decrease in ambulation” value is 85±15%. Besides, the “evoked pain induced by palpation of the cancerous limb, repeated vs single dosing” value in assay [2] (repeated dosing) is on record as “Improved analgesic efficacy”. The “effect on spontaneous ambulation” value in assay [2] (repeated dosing (10 μmol/kg p.o. twice-daily for 9 days)) came out at 43±0%. In addition, in assay [2] (single dose 10 μmol/kg p.o.), the “analgesic effect on spontaneous ambulation” value was 19±0% and the “analgesic effect on spontaneous guarding” value is 18±6%.

The values above are taken from patent US20100210682A1, “Repeated Dosing of TRPV1 Antagonists” (ABBOTT LABORATORIES, priority 2009, published 2010).
